The values below come from patent publication US20050203176A1, “Carbamates as HIV anti-viral agents” (WYETH, priority 2004, published 2005).

Like-named read-outs stand apart in the source and are kept apart here.

In test [1] the target is T1, HIV reverse transcriptase (RNase H activity) (Human immunodeficiency virus type 1 group M subtype B, UniProt P04585).
T1 construct: HIV reverse transcriptase has an RNase H domain at the C-terminus of its p66 subunit
Put plainly: RNase H / HIV reverse transcriptase inhibition (fluorescent probe-target hybrid assay). Particulars: inhibition of HIV reverse transcriptase / RNase H, Table I. It counts as biochemical. From the text: Preferably, the RNase H/HIV reverse transcriptase modulatory activity of the compounds of the present invention may be determined by the methods described in copending U.S. provisional patent Application No. 60/436,125, filed Dec. 19, 2003 and PCT Application Ser. No. WO 2004/059012, filed Dec. 22, 2003, published Jul. 15, 2004, entitled ASSAY FOR RNase ACTIVITY of Olsen et al., incorporated herein by reference in their entirety. Specifically, the modulatory activity of a carbamate derivative of the present invention may be determined by hybridizing a target nucleic acid to a fluorescently labeled oligonucleotide probe complementary to the target nucleic acid and containing a fluorophor at one terminus and a quenching group at the other terminus to obtain a probe-target hybrid, wherein (i) the unhybridized probe adopts a conformation that places the fluorophor and quencher in such proximity that the quencher quenches the fluorescent signal of the fluorophor, and (ii) the formation of the probe-target hybrid causes sufficient separation of the fluorophor and quencher to reduce quenching of the fluorescent signal of the fluorophor. Next, a first and second sample containing the probe-target hybrid are prepared. The probe-target hybrid of the first sample is then contacted with an RNase H enzyme (such as HIV reverse transcriptase) in an amount sufficient to selectively cleave the target nucleic acid and thereby release the intact probe. The probe-target hybrid of the second sample is also contacted with the RNase H enzyme in an amount sufficient to selectively cleave the target nucleic acid and thereby release the intact probe in the presence of a candidate carbamate derivative of the present invention. The release of the probe in each sample may then be detected by measuring the […] in the fluorescent signal of the fluorophor as compared to the signal of the probe-target hybrid. A comparison of the rate of the decrease in the fluorescent signal of the fluorophor in the two samples is made to determine whether there is a difference in the rate of the decrease in the two samples. […] This method is also useful to identify carbamate derivatives of the present invention, wherein candidate carbamate derivatives are screened for their ability to modulate RNase/HIV reverse transcriptase activity.

Test [2] concerns the target T2, HIV Reverse transcriptase (RT) p66/p51, RDDP activity (Human immunodeficiency virus type 1 group M subtype B, UniProt P04585).
T2 construct: […]; purchased Worthington
Kind of test: RNA dependent DNA polymerase (RDDP) activity of HIV RT, 33P TTP incorporation with polyrA-oligodT12-18. The test is classed as biochemical.

Test [3] relates to HIV-1 infection. Particulars: cited from earlier work.

What is called IC50 is the concentration that inhibits the measured activity by half. `Cc1ccc(NC(=O)CSC(=S)N(Cc2ccccc2)Cc2ccccc2)c(C)c1` [Example 1, 2-[(2,4-dimethylphenyl)amino]-2-oxoethyl dibenzyldithiocarbamate]: the IC50 was found to be 3.1 µM in test [1] and 30 µM in test [2].

For `O=C(CSC(=S)N(Cc1ccccc1)Cc1ccccc1)Nc1ccc(Cl)c(Cl)c1Cl` [Example 2, 2-oxo-2-[(2,3,4-trichlorophenyl)amino]ethyl dibenzyldithiocarbamate], the half-inhibitory concentration (IC50) is 3.3 µM in test [1] and greater than 80 µM in test [2].

For `CCN(CC)C(=S)S` [diethyldicarbamate], the “patients who died during eighteen-month follow up” value in test [3] (3 placebo patients had died from AIDS) was “none”. Moreover, in test [3] (HIV-1 patients Walter Reed stages 2-4, 24 weeks treatment, 6 of the placebo patients had AIDS), the “patients with AIDS at the end of the study” value was “no patient”. The disease progression entry in test [3] (HIV-1 patients, group that received the drug vs placebo) is “Significantly delayed disease progression”.

`Cc1cn([C@H]2C[C@H](N=[N+]=[N-])[C@@H](CO)O2)c(=O)[nH]c1=O` [AZT, zidovudine, reference compound]: in test [2], the concentration for half-maximal inhibition (IC50) is less than 0.2 µM.

For the compound `N#Cc1cccc(NC(=O)CSC(=S)N(Cc2ccccc2)Cc2ccccc2)c1` [Example 3, 2-[(3-cyanophenyl)amino]-2-oxoethyl dibenzyldithiocarbamate], the IC50 was 4.7 µM in test [1] and greater than 80 µM in test [2].

On to `COc1ccc(C)cc1NC(=O)CSC(=S)N(Cc1ccccc1)Cc1ccccc1` [Example 9], for which the IC50 in test [1] was 46.2 µM; in test [2], greater than 80 µM.

Take “2-[(2,4-dimethylphenyl)amino]-2-oxoethyl dibenzyl(phenyl)dithiocarbamate [Example 8]”: the IC50 was 41.5 µM in test [1] and greater than 80 µM in test [2] (inhibition of polymerase (RDDP) activity of HIV reverse transcriptase, Table II, read-out: IC50).

`O=C(CSC(=S)N(Cc1ccccc1)c1ccccc1)Nc1ccc(Cl)c(Cl)c1Cl` [Example 7, 2-oxo-2-[(2,3,4,-trichlorophenyl)amino]ethyl benzylphenyl dithiocarbamate]: the values for the IC50 in test [1] and in test [2] were 26.6 µM and greater than 80 µM, respectively.

As for `O=C(CSC(=S)N(Cc1ccccc1)Cc1ccccc1)Nc1ccc(Cl)cc1Cl` [Example 4, 2-[(2,4-dichlorophenyl)amino]-2-oxoethyl dibenzyldithiocarbamate], the concentration for half-maximal inhibition (IC50) in test [1] is 5.8 µM; in test [2], greater than 160 µM.

For `COc1ccc(C)cc1NC(=O)CSC(=S)N(Cc1ccccc1)c1ccccc1` [Example 5, 2-[(2-methoxy-5-methylphenyl)amino]-2-oxoethyl benzyl(phenyl)dithiocarbamate], the 50% inhibitory concentration (IC50) was 8.3 µM in test [1] and greater than 80 µM in test [2].

Take `N#Cc1cccc(NC(=O)CSC(=S)N(Cc2ccccc2)c2ccccc2)c1` [Example 6, 2-[(3-cyanophenyl)amino]-2-oxoethyl benzyl(phenyl)dithiocarbamate]: the values for the IC50 in test [1] and in test [2] were 11.4 µM and greater than 80 µM, respectively.
